Test results: patent US7658727B1, “Implantable medical device with enhanced biocompatibility and biostability” (Medtronic, Inc, priority 1998, dated 2010)

Legend:
Format in all cases: cell-based
human Mo/MØs = assay: Surface analysis (OM/SEM) for environmental stress cracking after macrophage/FeCl2 treatment; conditions: AS PEU exposed to Mo/MØs plus DSP followed by FeCl2
Method: Macrophage Treatment. The PEU film specimens (AS and non-AS) in the microwell plates were covered with either freshly isolated human or rabbit monocyte-derived macrophage (Mo/MØs), or human lymphocytes (3×10^5 cells per well) and cultured in a standard media (RPMI-1640, 10% Fetal bovine serum, […], 10 Ul/ml Penicillin-G and 0.1 mg/ml Streptomycin). A 49-day macrophage treatment was conducted under standard conditions (i.e., presence of 5% CO2, and 95% humidity at 37° C.). […] Two blank conditions were also studied. In one, culture media only was placed into the microwells. The other was prepared with no culture media and stored in the dark. All polymer specimens were incubated for the time of the first treatment. Samples in triplicate were removed after various time periods for hydroperoxide determination. After a 49-day incubation, specimens were prepared in triplicate for the second step of the sample treatment protocol.
FeCl2 treatment. […]
(§1) The polymer films (0.12 mm thick) were sufficiently thin and transparent to enable visualization of cells on their surfaces during cell culturing using optical microscopy (OM) with an Olympus BX40 light microscope. […] The polymer surfaces were also evaluated using SEM following the 10-day treatment with FeCl2. […]

[1] = test system: human monocyte-derived macrophage (Mo/MØs); assay: Morphology of Mo/MØ monolayers on polyetherurethane (OM, SEM); conditions: Mo/MØs cultured on PEU with DSP in culture media
Method: Human and rabbit blood was used as sources of the cells in these experiments. Blood was anticoagulated with 2 units/ml sodium heparin (Upjohn Co., Kalamazoo, MI). Mononuclear cells (lymphocytes, monocytes) were isolated within 15 minutes by a one-step density gradient centrifugation procedure using Isopaque-1077 (a density gradient solution) according to a modified Boyum's method (Boyum et al., Blood Separation and Plasma Fractionation, 217-239, Wiley-Liss, Inc. (1991)). The mononuclear cells were harvested and washed twice with cold Hanks balanced salt solution (HBSS) without Ca^2+ and Mg^2+ to minimize cell aggregation. The cells were then resuspended in standard media (RPMI-1640, 10% Fetal bovine serum, […], 10 Ul/ml Penicillin-G, and 0.1 mg/ml Streptomycin). The cell suspension was seeded into several plastic tissue culture flasks and incubated in the presence of 5% CO2 at 37° C. for 1 hour (Ackerman et al., J. Immunol., 20, 1372-1374 (1978)). After this incubation, adherent (monocytes) were gently scrapped from the surface and resuspended in standard media. […]
as §1

IL-8 = assay: In vitro expression of IL-8 in human primary monocytes; conditions: DEX 2.5, 0.25, 0.025 μg/ml; methotrexate 50, 5, 0.5 μg/ml
Method: (§2) In order to assess the in vitro expression of IL-1α and IL-8, human primary monocytes were incubated with various concentrations of DEX (2.5, 0.25, and 0.025 μg/ml) and methotrexate (50, 5, and 0.5 μg/ml).

IL-1α = assay: In vitro expression of IL-1α in human primary monocytes; conditions: DEX 2.5, 0.25, 0.025 μg/ml; methotrexate 50, 5, 0.5 μg/ml
Method: as §2

Row | SMILES | surface damage (SEM) after FeCl2 (human Mo/MØs) | cell size of Mo/MØ monolayers (OM) [1] | IL-8 inhibition (IL-8) | IL-1 inhibition (IL-1α)
1 | C[C@@H]1C[C@H]2[C@@H]3CCC4=CC(=O)C=C[C@]4(C)[C@@]3(F)[C@@H](O)C[C@]2(C)[C@@]1(O)C(=O)COP(=O)(O)O [DSP, dexamethasone sodium phosphate] | only very occasional pits | no increase in cell size |  | 
2 | CN(Cc1cnc2nc(N)nc(N)c2n1)c1ccc(C(=O)N[C@@H](CCC(=O)O)C(=O)O)cc1 [methotrexate] |  |  | higher rate of IL-1 and IL-8 inhibition | higher rate of IL-1 and IL-8 inhibition
